Measurements published in patent US20210261642A1, “SOLUBILITY OF GLP-1 PEPTIDE” (Novo Nordisk A/S, priority 2017, published 2021).

Experiment: Assay (I): Determination of Solubility (96-well plate, pH 3.0-11.0, organic solvent 0-70% w/w, UV absorption at 280 nm)
Format: physicochemical
Settings: Method 1
Experimental: Assay (I): Determination of Solubility
96-Well Plate Preparation
96-well plates containing target peptide in a solid form were prepared in one of two ways:
Method 1 (evaporation): Addition of 100 μl stock solution of said peptide at a concentration of 4-6 mg/ml to each well of a 96-well half area plate (150 μl well size). Subsequently the solvent was evaporated by applying a vacuum until the solvent was completely removed.
Method 2 (precipitation): Addition of a certain volume of a stock solution of said peptide containing to each well of a 96-well half area plate followed by the addition of a certain volume of concentrated phosphoric acid to obtain a pH of 4.6 followed by addition of a certain volume of ethanol resulting in a final ethanol concentration of 20% v/v. Subsequently the plate was stored at 4° C. for 1 h and then centrifuged at 4,000 rpm for 20 min. Finally the supernatant was removed. The concentration of the stock solution was chosen in a way that the final amount of peptide after supernatant removal was >0.4 mg per well.
In both cases the stock solution was prepared by adding de-ionized water to a certain amount of powder of said peptide followed by a stepwise addition of small amounts of a concentrated sodium hydroxide solution until said peptide was completely in solution.
To determine solubility of a target peptide at different pH and organic solvent concentrations, two different buffer systems were used in independent experiments to cover the whole range from pH 3.0 to pH 11.0. Buffer system 1 covers pH 3.0-7.5 and buffer system 2 covers pH 7.5-11.0. For each buffer system 96 different solvent compositions were premixed in the following way: • 1. A low pH buffer (adjusted to either pH 3.0 or pH 7.5) and a high pH buffer (adjusted to either pH 7.5 or pH 11.0) were mixed at 8 different ratios to obtain values between pH 3.0 and pH 7.5 or pH 7.5 and pH 11.0, respectively. The total volume after mixing was 300 μl. • 2. 12 different amounts of organic solvent were then added to these buffers to obtain organic solvent (e.g. ethanol) concentrations between 0 and 70% w/w. • 3. Water was then added to obtain a total weight of 1.0 g of solvent in each well.
After preparing the 96 different solvent systems, 100 μl of each system was transferred to the 96-well plate containing the solid form of the target peptide (prepared as described in the section “96-well plate preparation”). The plate was then stored at a given temperature (between 5° C. and 70° C.) for a given time on a rotating shaker set to 400 rpm. At regular time intervals the plate was centrifuged (4,000 rpm for 10 min) and a 10 μl sample was taken from each well. The samples were then analysed by UV absorption at 280 nm for peptide quantification. Peptide concentration results are given as UV absorption at 280 nm of the sample subtracted UV absorption at 280 nm of a well comprising 10 μl water.
The buffers used were as follows: • Buffer system 1 (for the pH range from pH 3.0-7.5)
• Buffer system 2 (for the pH ranae from pH 7.5-11.0)
Solubility of liraglutide was determined using Assay (I) described herein. Liraglutide was prepared using Method 1 (evaporation) or Method 2 (precipitation) as described in subsection “96-well plate preparation”.

In the case of CCCCCCCCCCCCCCCC(=O)N[C@@H](CCC(=O)NCCCC[C@H](NC(=O)[C@H](C)NC(=O)[C@H](C)NC(=O)[C@H](CCC(N)=O)NC(=O)CNC(=O)[C@H](CCC(=O)O)NC(=O)[C@H](CC(C)C)NC(=O)[C@H](Cc1ccc(O)cc1)NC(=O)[C@H](CO)NC(=O)[C@H](CO)NC(=O)[C@@H](NC(=O)[C@H](CC(=O)O)NC(=O)[C@H](CO)NC(=O)[C@@H](NC(=O)[C@H](Cc1ccccc1)NC(=O)[C@@H](NC(=O)CNC(=O)[C@H](CCC(=O)O)NC(=O)[C@H](C)NC(=O)[C@@H](N)Cc1cnc[nH]1)[C@@H](C)O)[C@@H](C)O)C(C)C)C(=O)N[C@@H](CCC(=O)O)C(=O)N[C@@H](Cc1ccccc1)C(=O)N[C@H](C(=O)N[C@@H](C)C(=O)N[C@@H](Cc1c[nH]c2ccccc12)C(=O)N[C@@H](CC(C)C)C(=O)N[C@H](C(=O)N[C@@H](CCCNC(=N)N)C(=O)NCC(=O)N[C@@H](CCCNC(=N)N)C(=O)NCC(=O)O)C(C)C)[C@@H](C)CC)C(=O)O [liraglutide, Arg34,Lys26-(N-epsilon-(gamma-L-glutamyl(N-alfa-hexadecanoyl)))-GLP-1(7-37)], the “Peptide concentration after 5 min” value (MeCN 31.8% w/w, pH 10.0, 5° C.) was 1.9 mg/mL, the “Peptide concentration after 180 min” value (MeCN 31.8% w/w, pH 10.0, 5° C.) was over 4.0 mg/mL and the “Peptide concentration after 24 h” value (MeCN 31.8% w/w, pH 10.0, 5° C.) was 2.8 mg/mL. The “Peptide concentration after 5 min” value (MeCN 31.8% w/w, pH 10.5, 5° C.) was 1.3 mg/mL, the “Peptide concentration after 180 min” value (MeCN 31.8% w/w, pH 10.5, 5° C.) was 3.9 mg/mL and the “Peptide concentration after 24 h” value (MeCN 31.8% w/w, pH 10.5, 5° C.) was 3.6 mg/mL. The “Peptide concentration after 5 min” value (MeCN 31.8% w/w, pH 11.0, 5° C.) was 0.8 mg/mL, the “Peptide concentration after 180 min” value (MeCN 31.8% w/w, pH 11.0, 5° C.) was 3.0 mg/mL and the “Peptide concentration after 24 h” value (MeCN 31.8% w/w, pH 11.0, 5° C.) was over 4.0 mg/mL. The “Peptide concentration after 5 min” value (MeCN 38.2% w/w, pH 8.0, 5° C.) was 0.8 mg/mL, the “Peptide concentration after 180 min” value (MeCN 38.2% w/w, pH 8.0, 5° C.) was 3.2 mg/mL and the “Peptide concentration after 24 h” value (MeCN 38.2% w/w, pH 8.0, 5° C.) was over 4.0 mg/mL. The “Peptide concentration after 5 min” value (MeCN 38.2% w/w, pH 8.5, 5° C.) was 0.8 mg/mL, the “Peptide concentration after 180 min” value (MeCN 38.2% w/w, pH 8.5, 5° C.) was 2.9 mg/mL and the “Peptide concentration after 24 h” value (MeCN 38.2% w/w, pH 8.5, 5° C.) was over 4.0 mg/mL. For the same molecule, the “Peptide concentration after 5 min” value (MeCN 38.2% w/w, pH 9.0, 5° C.) was 0.4 mg/mL, the “Peptide concentration after 180 min” value (MeCN 38.2% w/w, pH 9.0, 5° C.) was 2.0 mg/mL and the “Peptide concentration after 24 h” value (MeCN 38.2% w/w, pH 9.0, 5° C.) was over 4.0 mg/mL. The “Peptide concentration after 5 min” value (MeCN 38.2% w/w, pH 9.5, 5° C.) was 1.1 mg/mL, the “Peptide concentration after 180 min” value (MeCN 38.2% w/w, pH 9.5, 5° C.) was 3.9 mg/mL and the “Peptide concentration after 24 h” value (MeCN 38.2% w/w, pH 9.5, 5° C.) was 4.0 mg/mL. The “Peptide concentration after 5 min” value (MeCN 38.2% w/w, pH 10.0, 5° C.) was 1.5 mg/mL, the “Peptide concentration after 180 min” value (MeCN 38.2% w/w, pH 10.0, 5° C.) was over 4.0 mg/mL and the “Peptide concentration after 24 h” value (MeCN 38.2% w/w, pH 10.0, 5° C.) was over 4.0 mg/mL. The “Peptide concentration after 5 min” value (MeCN 38.2% w/w, pH 10.5, 5° C.) was 1.2 mg/mL, the “Peptide concentration after 180 min” value (MeCN 38.2% w/w, pH 10.5, 5° C.) was 3.2 mg/mL and the “Peptide concentration after 24 h” value (MeCN 38.2% w/w, pH 10.5, 5° C.) was 2.1 mg/mL. For the same molecule, the “Peptide concentration after 5 min” value (MeCN 38.2% w/w, pH 11.0, 5° C.) was 0.6 mg/mL, the “Peptide concentration after 180 min” value (MeCN 38.2% w/w, pH 11.0, 5° C.) was 2.7 mg/mL and the “Peptide concentration after 24 h” value (MeCN 38.2% w/w, pH 11.0, 5° C.) was over 4.0 mg/mL. The “Peptide concentration after 5 min” value (MeCN 44.5% w/w, pH 8.0, 5° C.) was 0.7 mg/mL, the “Peptide concentration after 180 min” value (MeCN 44.5% w/w, pH 8.0, 5° C.) was 2.8 mg/mL and the “Peptide concentration after 24 h” value (MeCN 44.5% w/w, pH 8.0, 5° C.) was over 4.0 mg/mL. The “Peptide concentration after 5 min” value (MeCN 44.5% w/w, pH 8.5, 5° C.) was 1.1 mg/mL, the “Peptide concentration after 180 min” value (MeCN 44.5% w/w, pH 8.5, 5° C.) was 3.3 mg/mL and the “Peptide concentration after 24 h” value (MeCN 44.5% w/w, pH 8.5, 5° C.) was over 4.0 mg/mL. For the same molecule, the “Peptide concentration after 5 min” value (MeCN 44.5% w/w, pH 9.0, 5° C.) was 1.7 mg/mL, the “Peptide concentration after 180 min” value (MeCN 44.5% w/w, pH 9.0, 5° C.) was 2.7 mg/mL and the “Peptide concentration after 24 h” value (MeCN 44.5% w/w, pH 9.0, 5° C.) was over 4.0 mg/mL. For the same molecule, the “Peptide concentration after 5 min” value (MeCN 44.5% w/w, pH 9.5, 5° C.) was 1.1 mg/mL, the “Peptide concentration after 180 min” value (MeCN 44.5% w/w, pH 9.5, 5° C.) was 3.7 mg/mL and the “Peptide concentration after 24 h” value (MeCN 44.5% w/w, pH 9.5, 5° C.) was 1.3 mg/mL. The “Peptide concentration after 5 min” value (MeCN 44.5% w/w, pH 10.0, 5° C.) was 1.3 mg/mL, the “Peptide concentration after 180 min” value (MeCN 44.5% w/w, pH 10.0, 5° C.) was 3.7 mg/mL and the “Peptide concentration after 24 h” value (MeCN 44.5% w/w, pH 10.0, 5° C.) was over 4.0 mg/mL. For the same molecule, the “Peptide concentration after 5 min” value (MeCN 44.5% w/w, pH 10.5, 5° C.) was 0.9 mg/mL, the “Peptide concentration after 180 min” value (MeCN 44.5% w/w, pH 10.5, 5° C.) was 2.9 mg/mL and the “Peptide concentration after 24 h” value (MeCN 44.5% w/w, pH 10.5, 5° C.) was over 4.0 mg/mL. For the same molecule, the “Peptide concentration after 5 min” value (MeCN 44.5% w/w, pH 11.0, 5° C.) was 0.8 mg/mL, the “Peptide concentration after 180 min” value (MeCN 44.5% w/w, pH 11.0, 5° C.) was 2.9 mg/mL and the “Peptide concentration after 24 h” value (MeCN 44.5% w/w, pH 11.0, 5° C.) was over 4.0 mg/mL. The “Peptide concentration after 5 min” value (MeCN 50.9% w/w, pH 8.0, 5° C.) was 0.6 mg/mL.
